{"source": "patent US5776944A", "about": "“7-(4-aminomethyl-3-methyloxyiminopyrroplidin-1-yl)-1-cyclopropyl-6-flu oro-4-oxo-1,4-dihydro-1,8-naphthyridine-3-carboxylic acid and the process for the preparation thereof” (LG Chemical Ltd., priority 1994, dated 1998)", "key": {"[1]": {"system": "Staphylococcus aureus 6538p", "assay": "In vitro antibacterial activity (MIC, agar dilution), Biological Example 1", "assay_type": "cell-based", "settings": "18 h, Table 25, read-out: Minimum Inhibitory Concentration"}, "[2]": {"system": "Staphylococcus aureus giorgio", "assay": "In vitro antibacterial activity (MIC, agar dilution), Biological Example 1", "assay_type": "cell-based", "settings": "18 h, Table 25, read-out: Minimum Inhibitory Concentration"}, "Staphylococcus aureus 77": {"system": "Staphylococcus aureus 77", "assay": "In vitro antibacterial activity (MIC, agar dilution), Biological Example 1", "assay_type": "cell-based", "settings": "18 h; Staphylococcus aureus 77, Table 25; read-out: Minimum Inhibitory Concentration"}, "[3]": {"system": "Staphylococcus aureus 241", "assay": "In vitro antibacterial activity (MIC, agar dilution), Biological Example 1", "assay_type": "cell-based", "settings": "18 h; Staphylococcus aureus 241, Table 25; read-out: Minimum Inhibitory Concentration"}, "[4]": {"system": "Staphylococcus epidermidis 887E", "assay": "In vitro antibacterial activity (MIC, agar dilution), Biological Example 1", "assay_type": "cell-based", "settings": "18 h, Table 25, read-out: Minimum Inhibitory Concentration"}, "[5]": {"system": "Staphylococcus epidermidis 178", "assay": "In vitro antibacterial activity (MIC, agar dilution), Biological Example 1", "assay_type": "cell-based", "settings": "18 h; Staphylococcus epidermidis 178, Table 25; read-out: Minimum Inhibitory Concentration"}, "[6]": {"system": "Streptococcus faecalis 29212", "assay": "In vitro antibacterial activity (MIC, agar dilution), Biological Example 1", "assay_type": "cell-based", "settings": "Enterococcus faecalis, 18 h; Streptococcus faecalis 29212, Table 25; read-out: Minimum Inhibitory Concentration"}, "Bacillus subtilis 6633": {"system": "Bacillus subtilis 6633", "assay": "In vitro antibacterial activity (MIC, agar dilution), Biological Example 1", "assay_type": "cell-based", "settings": "18 h; Bacillus subtilis 6633, Table 25; read-out: Minimum Inhibitory Concentration"}, "Micrococcus luteus 9341": {"system": "Micrococcus luteus 9341", "assay": "In vitro antibacterial activity (MIC, agar dilution), Biological Example 1", "assay_type": "cell-based", "settings": "18 h; Micrococcus luteus 9341, Table 25; read-out: Minimum Inhibitory Concentration"}, "Escherichia coli 10536": {"system": "Escherichia coli 10536", "assay": "In vitro antibacterial activity (MIC, agar dilution), Biological Example 1", "assay_type": "cell-based", "settings": "18 h; Escherichia coli 10536, Table 25; read-out: Minimum Inhibitory Concentration"}, "Escherichia coli 3190Y": {"system": "Escherichia coli 3190Y", "assay": "In vitro antibacterial activity (MIC, agar dilution), Biological Example 1", "assay_type": "cell-based", "settings": "18 h, Table 25, read-out: Minimum Inhibitory Concentration"}, "Escherichia coli 851E": {"system": "Escherichia coli 851E", "assay": "In vitro antibacterial activity (MIC, agar dilution), Biological Example 1", "assay_type": "cell-based", "settings": "18 h, Table 25, read-out: Minimum Inhibitory Concentration"}, "[7]": {"system": "Escherichia coli TEM3 3455E", "assay": "microbe, parasite or virus in culture", "assay_type": "cell-based", "settings": "TEM33455E, 18 h, read-out: Minimum Inhibitory Concentration"}, "[8]": {"system": "Escherichia coli TEM5 3739E", "assay": "microbe, parasite or virus in culture", "assay_type": "cell-based", "settings": "TEM53739E, 18 h, read-out: Minimum Inhibitory Concentration"}, "[9]": {"system": "Escherichia coli TEM9 2639E", "assay": "microbe, parasite or virus in culture", "assay_type": "cell-based", "settings": "TEM92639E, 18 h, read-out: Minimum Inhibitory Concentration"}, "[10]": {"system": "Pseudomonas aeruginosa 1912E", "assay": "In vitro antibacterial activity (MIC, agar dilution), Biological Example 1", "assay_type": "cell-based", "settings": "18 h; Pseudomonas aeruginosa 1912E, Table 25; read-out: Minimum Inhibitory Concentration"}, "[11]": {"system": "Pseudomonas aeruginosa 10145", "assay": "In vitro antibacterial activity (MIC, agar dilution), Biological Example 1", "assay_type": "cell-based", "settings": "18 h; Pseudomonas aeruginosa 10145, Table 25; read-out: Minimum Inhibitory Concentration"}, "[12]": {"system": "Acinetobacter calcoaceticus 15473", "assay": "In vitro antibacterial activity (MIC, agar dilution), Biological Example 1", "assay_type": "cell-based", "settings": "18 h; Acinetobacter calcoaceticus 15473, Table 25; read-out: Minimum Inhibitory Concentration"}, "[13]": {"system": "Citrobacter diversus 2046E", "assay": "In vitro antibacterial activity (MIC, agar dilution), Biological Example 1", "assay_type": "cell-based", "settings": "Citrobacter koseri, 18 h, Table 25, read-out: Minimum Inhibitory Concentration"}, "[14]": {"system": "Enterobacter cloacae 1194E", "assay": "microbe, parasite or virus in culture", "assay_type": "cell-based", "settings": "18 h, read-out: Minimum Inhibitory Concentration"}, "Enterobacter cloacae P99": {"system": "Enterobacter cloacae P99", "assay": "microbe, parasite or virus in culture", "assay_type": "cell-based", "settings": "P99, 18 h, read-out: Minimum Inhibitory Concentration"}, "[15]": {"system": "Klebsiella aerogenes 1976E", "assay": "In vitro antibacterial activity (MIC, agar dilution), Biological Example 1", "assay_type": "cell-based", "settings": "18 h, Table 25, read-out: Minimum Inhibitory Concentration"}, "[16]": {"system": "Klebsiella aerogenes 1082E", "assay": "In vitro antibacterial activity (MIC, agar dilution), Biological Example 1", "assay_type": "cell-based", "settings": "18 h, Table 25, read-out: Minimum Inhibitory Concentration"}, "[17]": {"system": "Salmonella typimurium 14028", "assay": "In vitro antibacterial activity (MIC, agar dilution), Biological Example 1", "assay_type": "cell-based", "settings": "18 h; Salmonella typimurium 14028, Table 25; read-out: Minimum Inhibitory Concentration"}, "Pharmacokinetic test": {"assay": "Pharmacokinetic test", "assay_type": "in vivo", "settings": "rat, blood, 20 mg/kg, SD rats (male); for half-life: read-out: T1/2 (biological half life) (converted)"}, "[18]": {"assay": "Moisture content according to hydration number", "assay_type": "physicochemical", "settings": "actual moisture content, methanesulfonate hydrates", "experimental": "The moisture content of the hydrate varies with the hydration number (n) of the hydrated molecule. Since the molecular weight of 7-(4-amino-methyl-3-methyloxylminopyrrolidin-1-yl)-1-cyclopropyl-6-fluoro- 4-oxo-1,4-dihydro-1,8-naphthyridine-3-carboxylic acid methanesulfonate is 485.5, the moisture content of the hydrate for n equal to 1, 1.5, 2, 2.5, 3, 3.5 or 4 is calculated to be 3.6%, […], 6.9%, 8.5%, 10.0%, 11.5% or 12.9%, respectively. However, the actual moisture content may differ from the calculated moisture content depending on differences in recrystallization conditions, drying conditions, etc."}, "[19]": {"settings": "phosphate buffered solution"}, "[20]": {"assay": "Chemical stability under heating", "experimental": "The anhydride and each of the hydrates was introduced into a glass vial and maintained at 70° C."}}, "note": "Read-outs that look alike come from different tables or passages of the source."}
{"smiles": "CON=C1CN(c2c(F)cc3c(=O)c(C(=O)O)cn(C4CC4)c3c2F)CC1CN", "note": "(stereo not shown) [Example 177]", "values": [{"measurement": "MIC", "setting": "[1]", "value": "≤ 0.008", "unit": "mg/L"}, {"measurement": "MIC", "setting": "[2]", "value": "≤ 0.008", "unit": "mg/L"}, {"measurement": "MIC", "setting": "Staphylococcus aureus 77", "value": 0.016, "unit": "mg/L"}, {"measurement": "MIC", "setting": "[3]", "value": 0.5, "unit": "mg/L"}, {"measurement": "MIC", "setting": "[4]", "value": "≤ 0.008", "unit": "mg/L"}, {"measurement": "MIC", "setting": "[5]", "value": 1, "unit": "mg/L"}, {"measurement": "MIC", "setting": "[6]", "value": 0.031, "unit": "mg/L"}, {"measurement": "MIC", "setting": "Bacillus subtilis 6633", "value": "≤ 0.008", "unit": "mg/L"}, {"measurement": "MIC", "setting": "Micrococcus luteus 9341", "value": 0.063, "unit": "mg/L"}, {"measurement": "MIC", "setting": "Escherichia coli 10536", "value": "≤ 0.008", "unit": "mg/L"}, {"measurement": "MIC", "setting": "Escherichia coli 3190Y", "value": "≤ 0.008", "unit": "mg/L"}, {"measurement": "MIC", "setting": "Escherichia coli 851E", "value": 0.031, "unit": "mg/L"}, {"measurement": "MIC", "setting": "[7]", "value": 0.25, "unit": "mg/L"}, {"measurement": "MIC", "setting": "[8]", "value": 0.13, "unit": "mg/L"}, {"measurement": "MIC", "setting": "[9]", "value": 0.063, "unit": "mg/L"}, {"measurement": "MIC", "setting": "[10]", "value": 0.5, "unit": "mg/L"}, {"measurement": "MIC", "setting": "[11]", "value": 0.5, "unit": "mg/L"}, {"measurement": "MIC", "setting": "[12]", "value": 0.13, "unit": "mg/L"}, {"measurement": "MIC", "setting": "[13]", "value": 0.031, "unit": "mg/L"}, {"measurement": "MIC", "setting": "[14]", "value": 0.063, "unit": "mg/L"}, {"measurement": "MIC", "setting": "Enterobacter cloacae P99", "value": 0.016, "unit": "mg/L"}, {"measurement": "MIC", "setting": "[15]", "value": 0.13, "unit": "mg/L"}, {"measurement": "MIC", "setting": "[16]", "value": 0.063, "unit": "mg/L"}, {"measurement": "MIC", "setting": "[17]", "value": 0.063, "unit": "mg/L"}, {"measurement": "Cmax", "setting": "Pharmacokinetic test; PO, read-out: Cmax (maximum blood concentration)", "value": "0.37 ± 0.11", "unit": "µg/mL"}, {"measurement": "half-life", "setting": "Pharmacokinetic test; PO", "value": "3.93 ± 1.31", "unit": "h"}, {"measurement": "Tmax", "setting": "Pharmacokinetic test; PO, read-out: Tmax (time showing maximum blood concentration)", "value": "0.51 ± 0.33", "unit": "h"}, {"measurement": "bioavailability", "setting": "Pharmacokinetic test; printed in the IV line, read-out: F (bioavailability)", "value": 47.2, "unit": "%"}, {"measurement": "half-life", "setting": "Pharmacokinetic test; IV", "value": "1.92 ± 0.38", "unit": "h"}]}
{"smiles": "CON=C1CN(c2nc3c(cc2F)c(=O)c(C(=O)O)cn3C2CC2)CC1CN", "note": "(stereo not shown) [3.5 hydrate, 7-(4-aminomethyl-3-methyloxylminopyrrolidin-1-yl)-1-cyclopropyl-6-fluoro-4-oxo-1,4-dihydro-1,8-naphthyridine-3-carboxylic acid methanesulfonate]", "values": [{"measurement": "Moisture Content", "setting": "[18]", "value": "11-12%"}]}
{"smiles": "CON=C1CN(c2nc3c(cc2F)c(=O)c(C(=O)O)cn3C2CC2)CC1CN", "note": "(stereo not shown) [Sulfurate]", "values": [{"measurement": "Water Solubility", "setting": "[19]; pH 2", "value": 8.9}, {"measurement": "Water Solubility", "setting": "[19]; pH 7", "value": 11.4}]}
{"smiles": "CON=C1CN(c2nc3c(cc2F)c(=O)c(C(=O)O)cn3C2CC2)CC1CN", "note": "(stereo not shown) [1 hydrate, 7-(4-aminomethyl-3-methyloxylminopyrrolidin-1-yl)-1-cyclopropyl-6-fluoro-4-oxo-1,4-dihydro-1,8-naphthyridine-3-carboxylic acid methanesulfonate]", "values": [{"measurement": "Moisture Content", "setting": "[18]", "value": "2-4%"}]}
{"smiles": "CON=C1CN(c2nc3c(cc2F)c(=O)c(C(=O)O)cn3C2CC2)CC1CN", "note": "(stereo not shown) [2.5 hydrate, 7-(4-aminomethyl-3-methyloxylminopyrrolidin-1-yl)-1-cyclopropyl-6-fluoro-4-oxo-1,4-dihydro-1,8-naphthyridine-3-carboxylic acid methanesulfonate]", "values": [{"measurement": "Moisture Content", "setting": "[18]", "value": "8-9%"}]}
{"smiles": "CON=C1CN(c2nc3c(cc2F)c(=O)c(C(=O)O)cn3C2CC2)CC1CN", "note": "(stereo not shown) [Anhydrate, 7-(4-aminomethyl-3-methyloxyiminopyrrolidin-1-yl)-1-cyclopropyl-6-fluoro-4-oxo-1,4-dihydro-1,8-naphthyridine-3-carboxylic acid methanesulfonate anhydride]", "values": [{"measurement": "thermal stability", "setting": "[20]", "value": 99, "unit": "%"}, {"measurement": "remaining at 336 h", "setting": "[20]; thermal stability, 2 weeks, 70° C.", "value": 97, "unit": "%"}, {"measurement": "remaining at 672 h", "setting": "[20]; thermal stability, 4 weeks, 70° C.", "value": 95, "unit": "%"}]}
